# From patent publication US20140356416A1, “LIPOSOMAL DRUG ENCAPSULATION” (priority 2011, published 2014)
# What was measured:
# [1] = Acute toxicity of free staurosporine at high dose; type: in vivo; details: 5 mg/Kg
# From the text: Future, more comprehensive studies will use even lower doses of staurosporine alone, and in combination with other agents.
# [2] = Reverse pH gradient drug encapsulation efficiency in liposomes; type: physicochemical; details: for drug encapsulation: reverse pH gradient technology, FIG. 10
# Protocol: The dried lipid film was hydrated with a buffer containing either ammonium phosphate, ammonium sulfate, sodium phosphate, or sodium sulfate (300 mM, pH 7.4) and vortexed for 1 minute to remove any adhering lipid film. Sonication in a bath sonicator (ULTRAsonik 28X) for 1 minute at room temperature produced multilamellar vesicles (MLV). MLVs were then sonicated with a Ti-probe (Branson 450 sonifier) for 2 minutes to produce small unilamellar vesicles (SUV), indicated by the formation of a translucent solution. Extrusion through a 100 nm pore size polycarbonate filter (Whatman) was the final stage of a stepwise series of extrusions to reduce SUV size.
# The prepared liposomes with internal buffer at pH 3 or 7.4 were passed through a Sephadex G-50 column equilibrated with HEPES buffered saline (HBS; 20 mM HEPES, 150 mM NaCl, pH 7.4) to exchange the external buffer. […] The solution was heated at 50° C. for 20 minutes, left to stand 4 hours at room temperature, and then applied to a Sephadex G-50 column and eluted with MilliQ water.
# U87 cells = experiment: In vivo anti-tumor activity, very large U87 flank tumors (180-200 mm^3); details: treatment over two weeks
# [3] = 0.8 mg/Kg injected as free drug, 'would very likely be' (Gurley et al.); cited from earlier work
drug encapsulation [2],Compound,acute toxicity [1],"liposomal loading capacity, peak value ([2]; drug to lipid ratio 0.09 (mole/mole)) [%]","increase of encapsulation when a gradient existed ([2]; internal buffer pH 7.4 versus pH 3, external buffer pH 3) [fold]","encapsulation rate ([2]; internal pH 5, external pH 7.4)",body weight (U87 cells),tumor growth (U87 cells; relative to PBS (p<0.004)),fraction cleared after one circulatory pass [3] [%]
–,"CN[C@@H]1C[C@H]2O[C@@](C)([C@@H]1OC)n1c3ccccc3c3c4c(c5c6ccccc6n2c5c31)C(=O)NC4 [staurosporine, (9S,10R,11R,13R)-2,3,10,11,12,13-Hexahydro-10-methoxy-9-methyl-11-(methylamino)-9,13-epoxy-1H,9H-diindolo[1,2,3-gh:3′,2′,1′-1m]pyrrolo[3,4-j][1,7]benzodiazonin-1-one]",acutely lethal,70,14,very low,body weight did decline,no demonstrable effect,99
good efficacy,O=c1cc(N2CCOCC2)oc2c(-c3ccccc3)cccc12 [LY29004],–,–,–,–,–,–,–
good efficacy,"COc1cc2ncnc(Nc3ccc(F)c(Cl)c3)c2cc1OCCCN1CCOCC1 [Gefitinib, N-(3-chloro-4-fluoro-phenyl)-7-methoxy-6-(3-morpholin-4-ylpropoxy)quinazolin-4-amine]",–,–,–,–,–,–,–
